Reference: PubChem BioAssay AID256 (DTP/NCI, 2004)
Values joined by “and” are separate entries in the source; they are usually repeats but may differ in a detail not shown here. Equal entries are not always repeated. Inconclusive results and toxic doses are left out. The calls were made as follows: active = survival T/C of 150% or more; inactive = T/C below 125% in these data.

Tested on: CD2F1 mice, L1210 leukemia ip, survival T/C
Assay: NCI In Vivo Anticancer Drug Screen. Data for tumor model L1210 Leukemia (intraperitoneal) in CD2F1 (CDF1) mice
Conditions: higher = longer survival
Outline: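 Each value reflects a quotient of treated over vehicle control outcomes in mice with a transplanted tumor.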

[1] = endpoint: mean survival time, dose: 25.0 mg/kg/injection, schedule: Q01DX009 (ip), vehicle: saline with Tween-80
[2] = endpoint: mean survival time, dose: 50.0 mg/kg/injection, schedule: Q01DX009 (ip), vehicle: saline with Tween-80
[3] = endpoint: mean survival time, dose: 100.0 mg/kg/injection, schedule: Q01DX009 (ip), vehicle: saline with Tween-80
[4] = endpoint: mean survival time, dose: 100.0 mg/kg/injection, schedule: Q04DX003 (ip), vehicle: saline with Tween-80
[5] = endpoint: mean survival time, dose: 200.0 mg/kg/injection, schedule: Q04DX003 (ip), vehicle: saline with Tween-80
[6] = endpoint: mean survival time, dose: 200.0 mg/kg/injection, schedule: Q01DX009 (ip), vehicle: saline with Tween-80
[7] = endpoint: mean survival time, dose: 400.0 mg/kg/injection, schedule: Q01DX009 (ip), vehicle: saline with Tween-80
[8] = endpoint: mean survival time, dose: 100.0 mg/kg/injection, schedule: Q01DX001 (ip), vehicle: saline with Tween-80
[9] = endpoint: mean survival time, dose: 200.0 mg/kg/injection, schedule: Q01DX001 (ip), vehicle: saline with Tween-80
[10] = endpoint: mean survival time, dose: 400.0 mg/kg/injection, schedule: Q01DX001 (ip), vehicle: saline with Tween-80

Measured: T/C

CN(Cc1cnc2nc(N)nc(N)c2n1)c1ccc(C(=O)NC(CCC(=O)O)C(=O)O)cc1.[W] (centres undefined)
active: endpoint: median survival time, dose: 11.0 mg/kg/injection, schedule: Q01DX009 (ip), vehicle: water 178 % of control | endpoint: median survival time, dose: 12.0 mg/kg/injection, schedule: Q01DX009 (ip), vehicle: water 202 % of control | endpoint: median survival time, dose: 12.0 mg/kg/injection, schedule: Q01DX009 (other), vehicle: water 202 % of control | endpoint: median survival time, dose: 14.0 mg/kg/injection, schedule: Q01DX009 (ip), vehicle: water 190 % of control | endpoint: median survival time, dose: 14.0 mg/kg/injection, schedule: Q## X009 (ip), vehicle: water 190 % of control | endpoint: median survival time, dose: 21.0 mg/kg/injection, schedule: Q01DX009 (ip), vehicle: water 178 % of control | endpoint: median survival time, dose: 22.0 mg/kg/injection, schedule: Q01DX009 (ip), vehicle: water 190 % of control | endpoint: median survival time, dose: 22.0 mg/kg/injection, schedule: Q01DX009 (other), vehicle: water 190 % of control | endpoint: median survival time, dose: 41.0 mg/kg/injection, schedule: Q01DX009 (ip), vehicle: water 166 % of control | endpoint: median survival time, dose: 42.0 mg/kg/injection, schedule: Q01DX009 (ip), vehicle: water 166 % of control | endpoint: median survival time, dose: 42.0 mg/kg/injection, schedule: Q01DX009 (other), vehicle: water 166 % of control

CCOC(=O)c1cnc(=O)[nH]c1N
inactive: [1] 101 % of control | endpoint: mean survival time, dose: 25.0 mg/kg/injection, schedule: Q04DX003 (ip), vehicle: saline with Tween-80 104 % of control | [2] 104 % of control | endpoint: mean survival time, dose: 50.0 mg/kg/injection, schedule: Q04DX003 (ip), vehicle: saline with Tween-80 98 % of control | [3] 96 % of control | [4] 89 % of control and 100 % of control | [5] 98 % of control

CC1=C(CNc2ncnc3nc[nH]c23)CC=CC1
inactive: [3] 88 % of control | [4] 95 % of control | [6] 92 % of control | [7] 88 % of control | endpoint: mean survival time, dose: 400.0 mg/kg/injection, schedule: Q04DX003 (ip), vehicle: saline with Tween-80 98 % of control

c1ccc2c[n+](C[n+]3ccc4ccccc4c3)ccc2c1
inactive: endpoint: mean survival time, dose: 50.0 mg/kg/injection, schedule: Q01DX009 (ip), vehicle: saline 96 % of control | endpoint: mean survival time, dose: 100.0 mg/kg/injection, schedule: Q01DX009 (ip), vehicle: saline 102 % of control | endpoint: mean survival time, dose: 200.0 mg/kg/injection, schedule: Q01DX009 (ip), vehicle: saline 102 % of control

COC(=O)[C@@]12OC[C@]34[C@H]([C@@H](O)[C@@H]1O)[C@@]1(C)CC(=O)C(OC(=O)CC(=O)OC5=C(C)[C@@H]6C[C@H]7OC(=O)[C@H](OC(=O)/C=C(\C)C(C)C)[C@H]8[C@]9(C(=O)OC)OC[C@]78[C@H]([C@@H](O)[C@@H]9O)[C@@]6(C)CC5=O)=C(C)[C@@H]1C[C@H]3OC(=O)[C@H](OC(=O)/C=C(\C)C(C)C)[C@@H]24
inactive: endpoint: median survival time, dose: 0.37 mg/kg/injection, schedule: Q01DX009 (ip), vehicle: saline + Tween-80 + alcohol 113 % of control | endpoint: median survival time, dose: 0.38 mg/kg/injection, schedule: Q01DX009 (ip), vehicle: saline + Tween-80 + alcohol 112 % of control | endpoint: median survival time, dose: 0.75 mg/kg/injection, schedule: Q01DX009 (ip), vehicle: saline + Tween-80 + alcohol 115 % of control and 121 % of control | endpoint: median survival time, dose: 1.5 mg/kg/injection, schedule: Q01DX009 (ip), vehicle: saline + Tween-80 + alcohol 121 % of control and 112 % of control

C=CCNc1ncnc2c1cnn2C
inactive: endpoint: mean survival time, dose: 100.0 mg/kg/injection, schedule: Q04DX003 (ip), vehicle: saline 106 % of control | endpoint: mean survival time, dose: 200.0 mg/kg/injection, schedule: Q04DX003 (ip), vehicle: saline 104 % of control

CCN(CC)C(=O)[S-].CCN(CC)C(=O)[S-].[Ni+2]
inactive: [8] 94 % of control | [9] 98 % of control | [10] 102 % of control

OC1CC2CCC(C1)N2CCCN1c2ccccc2Sc2ccc(Cl)cc21 (centres undefined)
inactive: endpoint: mean survival time, dose: 7.5 mg/kg/injection, schedule: Q01DX009 (ip), vehicle: saline 91 % of control | endpoint: mean survival time, dose: 15.0 mg/kg/injection, schedule: Q01DX009 (ip), vehicle: saline 98 % of control | endpoint: mean survival time, dose: 18.0 mg/kg/injection, schedule: Q04DX003 (ip), vehicle: saline with Tween-80 99 % of control | endpoint: mean survival time, dose: 27.0 mg/kg/injection, schedule: Q04DX003 (ip), vehicle: saline with Tween-80 94 % of control | endpoint: mean survival time, dose: 30.0 mg/kg/injection, schedule: Q01DX009 (ip), vehicle: saline 109 % of control | endpoint: mean survival time, dose: 40.0 mg/kg/injection, schedule: Q04DX003 (ip), vehicle: saline with Tween-80 103 % of control | endpoint: mean survival time, dose: 60.0 mg/kg/injection, schedule: Q04DX003 (ip), vehicle: saline with Tween-80 123 % of control

Cn1c(=O)[nH]c2c(nc(-c3ccccc3)n2Cc2ccccc2)c1=O
inactive: endpoint: mean survival time, dose: 7.8 mg/kg/injection, schedule: Q01DX005 (ip), vehicle: other 95 % of control | endpoint: mean survival time, dose: 15.6 mg/kg/injection, schedule: Q01DX005 (ip), vehicle: other 95 % of control | endpoint: mean survival time, dose: 31.3 mg/kg/injection, schedule: Q01DX005 (ip), vehicle: other 91 % of control | endpoint: mean survival time, dose: 62.5 mg/kg/injection, schedule: Q01DX005 (ip), vehicle: other 91 % of control | endpoint: mean survival time, dose: 125.0 mg/kg/injection, schedule: Q01DX005 (ip), vehicle: other 95 % of control

O=NNc1ccccn1
inactive: endpoint: mean survival time, dose: 8.0 mg/kg/injection, schedule: Q04DX003 (ip), vehicle: saline 114 % of control | endpoint: median survival time, dose: 0.78 mg/kg/injection, schedule: Q01DX009 (ip), vehicle: saline 104 % of control | endpoint: median survival time, dose: 1.56 mg/kg/injection, schedule: Q01DX005 (ip), vehicle: saline 107 % of control | endpoint: median survival time, dose: 1.56 mg/kg/injection, schedule: Q01DX009 (ip), vehicle: saline 106 % of control | endpoint: median survival time, dose: 3.12 mg/kg/injection, schedule: Q01DX005 (ip), vehicle: saline 117 % of control and 110 % of control | endpoint: median survival time, dose: 3.12 mg/kg/injection, schedule: Q01DX009 (ip), vehicle: saline 110 % of control | endpoint: median survival time, dose: 3.13 mg/kg/injection, schedule: Q01DX005 (ip), vehicle: saline 122 % of control | endpoint: median survival time, dose: 6.25 mg/kg/injection, schedule: Q01DX005 (ip), vehicle: saline 117 % of control | endpoint: median survival time, dose: 6.25 mg/kg/injection, schedule: Q01DX009 (ip), vehicle: saline 119 % of control | endpoint: median survival time, dose: 50.0 mg/kg/injection, schedule: Q01DX005 (ip), vehicle: saline 96 % of control and 103 % of control
active: endpoint: median survival time, dose: 12.5 mg/kg/injection, schedule: Q01DX005 (ip), vehicle: saline 160 % of control | endpoint: median survival time, dose: 25.0 mg/kg/injection, schedule: Q01DX005 (ip), vehicle: saline 184 % of control and 187 % of control

CC(=O)O[C@@H]1C[C@H](C)CC[C@H]1C(C)C
inactive: [4] 98 % of control | [5] 89 % of control

CC(=O)Nc1cc2c(ncn2C2OC(CO)C(O)C2O)c(Br)n1 (centres undefined)
inactive: endpoint: mean survival time, dose: 12.5 mg/kg/injection, schedule: Q01DX005 (ip), vehicle: water 93 % of control | endpoint: mean survival time, dose: 25.0 mg/kg/injection, schedule: Q01DX005 (ip), vehicle: water 94 % of control | endpoint: mean survival time, dose: 50.0 mg/kg/injection, schedule: Q01DX005 (ip), vehicle: water 98 % of control | endpoint: mean survival time, dose: 200.0 mg/kg/injection, schedule: Q01DX005 (ip), vehicle: water 94 % of control

Cc1ccc(S(=O)(=O)OCC(O)C(O)C(O)C(O)COS(=O)(=O)c2ccc(C)cc2)cc1 (centres undefined)
inactive: endpoint: mean survival time, dose: 50.0 mg/kg/injection, schedule: Q01DX001 (ip), vehicle: saline with Tween-80 96 % of control | [8] 96 % of control | [9] 96 % of control

CCOC(=O)Nc1cc2c(c(N)n1)N=C(CN(C)c1ccccc1)CN2
inactive: endpoint: mean survival time, dose: 6.25 mg/kg/injection, schedule: Q01DX009 (ip), vehicle: Klucel (hydroxypropylcellulose) (HPC) 110 % of control | endpoint: mean survival time, dose: 12.5 mg/kg/injection, schedule: Q01DX009 (ip), vehicle: Klucel (hydroxypropylcellulose) (HPC) 87 % of control

O=[N+]([O-])c1ccc(C(O)C(O)c2ccccc2)cc1 (centres undefined)
inactive: [8] 96 % of control | [9] 92 % of control | [10] 95 % of control

Cc1ccc(S(=O)(=O)NC(=S)S)cc1
inactive: endpoint: mean survival time, dose: 12.5 mg/kg/injection, schedule: Q01DX009 (ip), vehicle: saline with Tween-80 102 % of control and 110 % of control | [1] 115 % of control and 103 % of control | [2] 110 % of control and 112 % of control | [3] 113 % of control and 103 % of control | [6] 105 % of control and 111 % of control | [7] 105 % of control and 109 % of control

CCCN(C)C(=O)N(CCCl)N=O
inactive: endpoint: mean survival time, dose: 250.0 mg/kg/injection, schedule: Q01DX001 (ip), vehicle: other 102 % of control
active: endpoint: mean survival time, dose: 39.0 mg/kg/injection, schedule: Q01DX001 (ip), vehicle: other 306 % of control | endpoint: mean survival time, dose: 62.5 mg/kg/injection, schedule: Q01DX001 (ip), vehicle: other 197 % of control | endpoint: mean survival time, dose: 78.0 mg/kg/injection, schedule: Q01DX001 (ip), vehicle: other 448 % of control | endpoint: mean survival time, dose: 125.0 mg/kg/injection, schedule: Q01DX001 (ip), vehicle: other 320 % of control
